Data on 23 molecules can be found in US9902703B2, “Somatostatin modulators and uses thereof” (Crinetics Pharmaceuticals, Inc., priority 2015, dated 2018).

For orientation: EC50 means the concentration that produces a half-maximal response.

The target of the assay is T1, human somatostatin receptor subtype 2 (Homo sapiens, UniProt P30874).
T1 construct: expressed in transfected cells; host or cells: CHO (Chinese hamster ovary) cells, G-418 selected
T1 sequence (P30874 whole entry): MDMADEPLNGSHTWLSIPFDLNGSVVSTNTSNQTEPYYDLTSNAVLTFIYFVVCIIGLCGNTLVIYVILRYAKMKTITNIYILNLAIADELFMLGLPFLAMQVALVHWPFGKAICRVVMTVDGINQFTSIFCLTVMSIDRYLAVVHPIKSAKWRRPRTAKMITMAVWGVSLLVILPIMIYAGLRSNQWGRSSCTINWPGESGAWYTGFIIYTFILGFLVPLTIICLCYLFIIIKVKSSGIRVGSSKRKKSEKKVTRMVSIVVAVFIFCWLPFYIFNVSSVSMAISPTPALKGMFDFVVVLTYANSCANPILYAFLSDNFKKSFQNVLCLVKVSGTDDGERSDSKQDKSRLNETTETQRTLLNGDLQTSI
As to the kind of experiment: cAMP assay (functional assay for SSTR2 agonists). To be noted: CHO cells expressing human SSTR2; intracellular cAMP with forskolin, HTRF; read-out: SSTR2a EC50. Format: cell-based. The text has this: Functional Assay for SSTR2 Agonists
General overview: All five SSTR subtypes are Gi coupled G-protein coupled receptors (GPCRs) that lead to decreases in intracellular cyclic AMP (cAMP) when activated by an agonist. Therefore, measurement of intracellular cAMP levels can be used to assess whether compounds of the invention are agonists of SSTR subtypes (John Kelly, Troy Stevens, W. Joseph Thompson, and Roland Seifert, Current Protocols in Pharmacology, 2005, 2.2.1-2.2). One example of an intracellular cAMP assay is described below.
One day prior to the assay, 40,000 Chinese hamster ovary (CHO) cells expressing the human somatostatin receptor subtype 2 are plated in each well of a 96-well tissue culture plate in DM-MEM growth media (Gibco) with the following additives: 10% fetal bovine serum (Gibco), 100 U/mL penicillin (Gibco), 100 ug/mL streptomycin (Gibco), 10 mM HEPES (Gibco), 1.2 mM sodium hydroxide, 0.5 mg/mL G-418 (Gibco)). The cells are cultured overnight at 37° C., 5% CO2 and 95% humidity. On the day of the assay, the media is aspirated and the cells are washed with 1× Dulbecco's phosphate buffered saline (Gibco). Next, 5 μL of assay buffer (1× Earle's Balanced Salt Solution (Gibco), 5 mM MgCl2, 10 mM HEPES, 0.1% bovine serum albumin, 0.2 mM 3-Isobutyl-1-methylxanthine (IBMX, Biomol Research Labs)) and forskolin is added. Various dilutions of the compounds of the invention are prepared in assay buffer and 5 μL of the dilutions are added to the cultured cells and incubated for 15 minutes at 37° C. […] 10 μL of lysis buffer (HRTF cAMP kit, Cisbio) containing cAMP detection and visualization antibodies are added and the assay is allowed incubate for 1-24 hours at room temperature. The intracellular cAMP concentrations are then measured using a commercially available detection kit (for example, the cAMP HTRF kit, Cisbio). The measured intracellular cAMP concentrations are plotted vs. the concentration of the compounds of the invention and the EC50 of the compounds are calculated using standard methods.
(cAMP levels reflect the balance of adenylyl cyclase and phosphodiesterase activity.)
As to `CC1=Nc2ccc(-c3cc(O)ccc3Cl)cc2C(C(=O)NC[C@@H]2CCCN2)N1c1cc(C)cc(Cl)c1` (stereo partly drawn) [Compound 1-28, 6-(2-chloro-5-hydroxyphenyl)-3-(3-chloro-5-methylphenyl)-2-methyl-N-[(2S)-pyrrolidin-2-ylmethyl]-3,4-dihydroquinazoline-4-carboxamide], the EC50 was less than 0.1 µM.
With `Cc1cc(C)cc(N2C=Nc3cc(C)c(-c4cccc(O)c4)cc3C2C(=O)N(C)C[C@@H]2CCCN2)c1` (stereo partly drawn) [Compound 1-12, 3-(3,5-dimethylphenyl)-6-(3-hydroxyphenyl)-N,7-dimethyl-N-[(2S)-pyrrolidin-2-ylmethyl]-3,4-dihydroquinazoline-4-carboxamide] the figure was less than 0.1 µM.
Take `Cc1cc(Cl)cc(N2C=Nc3cc(C)c(-c4cccc(F)c4C)cc3C2C(=O)N(C)C[C@@H]2CCCN2)c1` (stereo partly drawn) [Compound 2-7, 3-(3-chloro-5-methylphenyl)-6-(3-fluoro-2-methylphenyl)-N,7-dimethyl-N-[(2S)-pyrrolidin-2-ylmethyl]-3,4-dihydroquinazoline-4-carboxamide]: the EC50 is less than 0.1 µM.
With `Cc1cc(Cl)cc(N2C=Nc3cc(C)c(-c4cc(O)cc(F)c4)cc3C2C(=O)N(C)C[C@@H]2CCCN2)c1` (stereo partly drawn) [Compound 2-21, 3-(3-chloro-5-methylphenyl)-6-(3-fluoro-5-hydroxyphenyl)-N,7-dimethyl-N-[(2S)-pyrrolidin-2-ylmethyl]-3,4-dihydroquinazoline-4-carboxamide] the figure was less than 0.1 µM; with `COc1ccc(C)c(-c2cc3c(cc2C)N=CN(c2cc(C)cc(Cl)c2)C3C(=O)N(C)C[C@@H]2CCCN2)c1` (stereo partly drawn) [Compound 2-4, 3-(3-chloro-5-methylphenyl)-6-(5-methoxy-2-methylphenyl)-N,7-dimethyl-N-[(2S)-pyrrolidin-2-ylmethyl]-3,4-dihydroquinazoline-4-carboxamide], less than 0.1 µM.
As to `Cc1cc(Cl)cc(N2C=Nc3cc(C)c(-c4cc(F)ccc4C)cc3C2C(=O)N(C)C[C@@H]2CCCN2)c1` (stereo partly drawn) [Compound 2-13, 3-(3-chloro-5-methylphenyl)-6-(5-fluoro-2-methylphenyl)-N,7-dimethyl-N-[(2S)-pyrrolidin-2-ylmethyl]-3,4-dihydroquinazoline-4-carboxamide], the EC50 is less than 0.1 µM.
The result for `COc1cc(F)cc(-c2cc3c(cc2C)N=CN(c2cc(C)cc(Cl)c2)C3C(=O)N(C)C[C@@H]2CCCN2)c1` (stereo partly drawn) [Compound 2-35, 3-(3-chloro-5-methylphenyl)-6-(3-fluoro-5-methoxyphenyl)-N,7-dimethyl-N-[(2S)-pyrrolidin-2-ylmethyl]-3,4-dihydroquinazoline-4-carboxamide] reads less than 0.1 µM.
Regarding `Cc1cc(Cl)cc(N2C=Nc3cc(C)c(-c4ccccc4Cl)cc3C2C(=O)N(C)C[C@@H]2CCCN2)c1` (stereo partly drawn) [Compound 1-36, 3-(3-chloro-5-methylphenyl)-6-(2-chlorophenyl)-N,7-dimethyl-N-[(2S)-pyrrolidin-2-ylmethyl]-3,4-dihydroquinazoline-4-carboxamide], the EC50 is less than 0.1 µM.
The result for `Cc1cc(Cl)cc(N2C=Nc3cc(C)c(-c4cccc(O)c4)cc3C2C(=O)N(C)C[C@H]2CCCN2)c1` (stereo partly drawn) [Compound 1-18, 3-(3-chloro-5-methylphenyl)-6-(3-hydroxyphenyl)-N,7-dimethyl-N-[(2R)-pyrrolidin-2-ylmethyl]-3,4-dihydroquinazoline-4-carboxamide] reads less than 0.1 µM; that for `Cc1cc(F)cc(N2C=Nc3cc(C)c(-c4cccc(O)c4)cc3C2C(=O)N(C)C[C@@H]2CCCN2)c1` (stereo partly drawn) [Compound 1-25, 3-(3-fluoro-5-methylphenyl)-6-(3-hydroxyphenyl)-N,7-dimethyl-N-[(2S)-pyrrolidin-2-ylmethyl]-3,4-dihydroquinazoline-4-carboxamide], less than 0.1 µM; that for `COc1c(C#N)cccc1-c1cc2c(cc1C)N=CN(c1cc(C)cc(Cl)c1)C2C(=O)N(C)C[C@@H]1CCCN1` (stereo partly drawn) [Compound 2-28, 3-(3-chloro-5-methylphenyl)-6-(3-cyano-2-methoxyphenyl)-N,7-dimethyl-N-[(2S)-pyrrolidin-2-ylmethyl]-3,4-dihydroquinazoline-4-carboxamide], less than 0.1 µM.
With `Cc1cc(Cl)cc(N2C=Nc3cc(C)c(-c4ccc(F)cc4C)cc3C2C(=O)N(C)C[C@@H]2CCCN2)c1` (stereo partly drawn) [Compound 2-8, 3-(3-chloro-5-methylphenyl)-6-(4-fluoro-2-methylphenyl)-N,7-dimethyl-N-[(2S)-pyrrolidin-2-ylmethyl]-3,4-dihydroquinazoline-4-carboxamide] the figure was less than 0.1 µM; with `Cc1cc(Cl)cc(N2C=Nc3cc(C)c(-c4cccc(C(F)(F)F)c4)cc3C2C(=O)N(C)C[C@@H]2CCCN2)c1` (stereo partly drawn) [Compound 1-43, 3-(3-chloro-5-methylphenyl)-N,7-dimethyl-N-[(2S)-pyrrolidin-2-ylmethyl]-6-[3-(trifluoromethyl)phenyl]-3,4-dihydroquinazoline-4-carboxamide], less than 0.1 µM.
For `Cc1cc(Cl)cc(N2C=Nc3cc(C)c(-c4cccc(C#N)c4C)cc3C2C(=O)N(C)C[C@@H]2CCCN2)c1` (stereo partly drawn) [Compound 1-44, 3-(3-chloro-5-methylphenyl)-6-(3-cyano-2-methylphenyl)-N,7-dimethyl-N-[(2S)-pyrrolidin-2-ylmethyl]-3,4-dihydroquinazoline-4-carboxamide], the EC50 is less than 0.1 µM.
Take `CCN(C[C@@H]1CCCN1)C(=O)C1c2cc(-c3cccc(O)c3)c(C)cc2N=CN1c1cc(C)cc(Cl)c1` (stereo partly drawn) [Compound 1-31, 3-(3-chloro-5-methylphenyl)-N-ethyl-6-(3-hydroxyphenyl)-7-methyl-N-[(2S)-pyrrolidin-2-ylmethyl]-3,4-dihydroquinazoline-4-carboxamide]: the EC50 is less than 0.1 µM.
For the molecule `Cc1cc(Cl)cc(N2C=Nc3cc(C)c(-c4cccc(C#N)c4F)cc3C2C(=O)N(C)C[C@@H]2CCCN2)c1` (stereo partly drawn) [Compound 1-41, 3-(3-chloro-5-methylphenyl)-6-(3-cyano-2-fluorophenyl)-N,7-dimethyl-N-[(2S)-pyrrolidin-2-ylmethyl]-3,4-dihydroquinazoline-4-carboxamide], the EC50 is less than 0.1 µM.
In the case of `Cc1cc(F)cc(N2C=Nc3cc(C)c(-c4cc(O)cc(C#N)c4)cc3C2C(=O)N(C)C[C@@H]2CCCN2)c1` (stereo partly drawn) [Compound 1-54, 6-(3-cyano-5-hydroxyphenyl)-3-(3-fluoro-5-methylphenyl)-N,7-dimethyl-N-[(2S)-pyrrolidin-2-ylmethyl]-3,4-dihydroquinazoline-4-carboxamide], the EC50 is less than 0.1 µM.
The result for `CC[C@H](N)CN(C)C(=O)C1c2cc(-c3cc(O)c(F)cc3F)c(C)cc2N=CN1c1cc(C)cc(C)c1` (stereo partly drawn) [Compound 1-14, N-[(2S)-2-aminobutyl]-6-(2,4-difluoro-5-hydroxyphenyl)-3-(3,5-dimethylphenyl)-N,7-dimethyl-3,4-dihydroquinazoline-4-carboxamide] reads 0.1 to 1 µM.
`Cc1cc(Cl)cc(N2C=Nc3cc(C)c(-c4cnn(C)c4)cc3C2C(=O)N(C)C[C@@H]2CCCN2)c1` (stereo partly drawn) [Compound 2-1, 3-(3-chloro-5-methylphenyl)-N,7-dimethyl-6-(1-methyl-1H-pyrazol-4-yl)-N-[(2S)-pyrrolidin-2-ylmethyl]-3,4-dihydroquinazoline-4-carboxamide]: the EC50 was 0.1 to 1 µM.
Turning to `CC[C@H](N)CN(C)C(=O)C1c2cc(-c3cc(O)cc(F)c3)c(Cl)cc2N=CN1c1cc(C)cc(C)c1` (stereo partly drawn) [Compound 1-6, N-[(2S)-2-aminobutyl]-7-chloro-3-(3,5-dimethylphenyl)-6-(3-fluoro-5-hydroxyphenyl)-N-methyl-3,4-dihydroquinazoline-4-carboxamide], the EC50 was less than 0.1 µM.
With `Cc1cc(Cl)cc(N2C=Nc3cc(C)c(-c4cc(O)cc(C#N)c4)cc3C2C(=O)N(C)C[C@@H]2CCCN2)c1` (stereo partly drawn) [Compound 1-48, 3-(3-chloro-5-methylphenyl)-6-(3-cyano-5-hydroxyphenyl)-N,7-dimethyl-N-[(2S)-pyrrolidin-2-ylmethyl]-3,4-dihydroquinazoline-4-carboxamide] the figure was less than 0.1 µM; with `COc1cc(C)cc(-c2cc3c(cc2C)N=CN(c2cc(C)cc(Cl)c2)C3C(=O)N(C)C[C@@H]2CCCN2)c1` (stereo partly drawn) [Compound 2-15, 3-(3-chloro-5-methylphenyl)-6-(3-methoxy-5-methylphenyl)-N,7-dimethyl-N-[(2S)-pyrrolidin-2-ylmethyl]-3,4-dihydroquinazoline-4-carboxamide], less than 0.1 µM; with `Cc1cc(F)cc(N2C=Nc3cc(C)c(-c4cc(O)ccc4Cl)cc3C2C(=O)N(C)C[C@@H]2CCCN2)c1` (stereo partly drawn) [Compound 1-26, 6-(2-chloro-5-hydroxyphenyl)-3-(3-fluoro-5-methylphenyl)-N,7-dimethyl-N-[(2S)-pyrrolidin-2-ylmethyl]-3,4-dihydroquinazoline-4-carboxamide], less than 0.1 µM.
